Measurements published in PubChem BioAssay (NCI).
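Protocol summary: plate cells (96-well), add compound at 5 concentrations, incubate 48 h, interpolate endpoints linearly. The concentration for 50% growth inhibition is given as GI50. TGI: concentration producing complete growth inhibition.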 *1 amine or outer side, *2 acyl side, *3 side chain or, on linkers, in order; H or OH if unused. Where a SMILES comes first, the peptide text is derived from it. [ ]: non-standard residue; d: D form. X32 = C[C@H](N[*:1])C(=O)C(C)(C)C(=O)[*:2]; Hmpa(2S,3S) = CC[C@H](C)[C@H](O)C(=O)O; NMeY = CN[C@@H](Cc1ccc(O)cc1)C(=O)O; NMeL = CN[C@@H](CC(C)C)C(=O)O; NMeV = CN[C@H](C(=O)O)C(C)C; βAla = NCCC(=O)O

Experiments:
Experiment in all cases: growth of human tumour cells (NCI), 48 h
HS 578T breast = tested on: HS 578T breast
RPMI-8226 leukemia = tested on: RPMI-8226 leukemia
SK-MEL-28 melanoma = tested on: SK-MEL-28 melanoma
HL-60(TB) leukemia = tested on: HL-60(TB) leukemia
DU-145 prostate = tested on: DU-145 prostate
CCRF-CEM leukemia = tested on: CCRF-CEM leukemia
SNB-19 CNS = tested on: SNB-19 CNS
UO-31 renal = tested on: UO-31 renal
SNB-75 CNS = tested on: SNB-75 CNS
RXF 393 renal = tested on: RXF 393 renal
SF-539 CNS = tested on: SF-539 CNS

Compound | TGI (HS 578T breast) [µM] | TGI (RPMI-8226 leukemia) [µM] | TGI (SK-MEL-28 melanoma) [µM] | TGI (HL-60(TB) leukemia) [µM] | TGI (DU-145 prostate) [µM] | TGI (CCRF-CEM leukemia) [µM] | TGI (SNB-19 CNS) [µM] | TGI (UO-31 renal) [µM] | TGI (SNB-75 CNS) [µM] | TGI (RXF 393 renal) [µM] | TGI (SF-539 CNS) [µM] | GI50 (HS 578T breast) [µM] | GI50 (RPMI-8226 leukemia) [µM] | GI50 (SK-MEL-28 melanoma) [µM] | GI50 (SF-539 CNS) [µM] | GI50 (DU-145 prostate) [µM] | GI50 (CCRF-CEM leukemia) [µM] | GI50 (UO-31 renal) [µM]
CC(=O)O[C@H]1[C@H](OC(=O)CC(C)(O)CC(=O)O)C[C@]2(C)C3=C(CCC2C1(C)C)[C@]1(C)CC[C@H]([C@H]2CC[C@H](C(C)(C)O)OC2O)[C@@]1(C)[C@@H](O)C3 (stereo partly drawn) | 41.9 | 43.8 | 31.5 | 36.5 | 64.8 | 49.7 | 33.6 | 25.8 |  |  |  |  |  |  |  |  |  | 
N#Cc1ccc(-n2c3ccccc3c3ccc4c(c32)C(=O)C=CC4=O)cc1 | 39.3 | > 100 | 13.1 | > 100 | > 24.7 |  | 26.6 | 3.02 | > 53.3 | 5.32 | 18.5 |  |  |  |  |  |  | 
CC[C@H](C)[C@@H]1OC(=O)CCNC(=O)[C@@H](C)NC(=O)C(C)(C)C(=O)[C@H](C)NC(=O)[C@H](Cc2ccc(OC)cc2)N(C)C(=O)[C@H](C(C)C)N(C)C(=O)CNC(=O)[C@H](CC(C)C)N(C)C(=O)CNC1=O (cyclo(G[NMeL]G[NMeV][NMeY](Me)[X32][dA][βAla][Hmpa(2S,3S)])) | 20.8 | 11.1 | > 36.3 |  | > 39.2 | 2.2 | 9.63 | 16 | 3.52 | 2 | > 33.6 |  |  |  |  |  |  | 
CC(=O)Nc1c(C)cc2c(nc3n2CCC3O)c1[N+](=O)[O-] (stereo not drawn) | > 100 | > 100 | > 100 | > 100 | > 100 | > 100 | > 100 | > 100 | > 100 |  | > 100 |  |  |  |  |  |  | 
CCOC(=O)NC(Nc1ccc(C(=O)OCC)cc1)(C(F)(F)F)C(F)(F)F | > 100 | > 100 | > 100 | > 100 | > 100 | > 100 | > 100 | > 100 | > 100 |  | > 100 |  |  |  |  |  |  | 
CO/N=C(\C)c1cccc(Nc2c3ccccc3nc3occc23)c1 | 41 | 27.7 | 16.5 | 13.6 | 44.4 | > 100 | 45.5 | 31.5 |  | 5.87 | 21.5 |  |  |  |  |  |  | 
O=c1/c(=C/c2ccc(-c3ccc(Cl)cc3Cl)o2)sc2n1[C@@H](c1ccc(Cl)cc1)C=C(c1cc(F)c(Cl)cc1Cl)N=2 | > 100 | > 100 | > 100 |  | > 100 |  | > 100 | > 100 | > 100 | > 100 | > 100 |  |  |  |  |  |  | 
CCC(C#N)NCc1cccc(CNC(C#N)CC)c1 (stereo not drawn) | > 100 |  | > 100 | > 100 | > 100 | > 100 | > 100 | > 100 |  |  | > 100 |  |  |  |  |  |  | 
COCN1C(=O)[C@@H]2CCCN2C(=O)c2cc(N)ccc21 | > 100 |  | > 100 |  | > 100 |  | > 100 | > 100 | > 100 | > 100 | > 100 |  |  |  |  |  |  | 
N#Cc1c(N)nc(Sc2ccccc2N)c(C#N)c1-c1ccc(Cl)cc1 | 32 | 28.8 | > 100 | > 100 | > 58.2 | > 100 | > 56.6 | 9.64 |  | 49.9 | 26.7 |  |  |  |  |  |  | 
Oc1ccc2c(c1)-c1c(c3ccccc3n1CCN1CCOCC1)CC2 | > 100 | > 100 |  | > 100 | > 100 | > 100 | > 100 | > 100 | 68.5 | > 100 | > 100 |  |  |  |  |  |  | 
CC(=O)OCC1OC(n2c(-c3ccc(C)cc3)cc(-c3ccccc3)c(C#N)c2=S)C(OC(C)=O)C(OC(C)=O)C1OC(C)=O (stereo not drawn) | > 100 | > 100 | > 100 | > 100 | > 100 |  | > 100 | > 100 | > 100 | > 100 | > 100 |  |  |  |  |  |  | 
Nn1c(Cc2ccc([N+](=O)[O-])cc2)n[nH]c1=O | > 100 | > 100 | > 100 | > 100 | > 100 | > 100 | > 100 | > 100 | > 100 |  | > 100 |  |  |  |  |  |  | 
COc1cc(/C=c2\sc3n(c2=O)C(c2ccc(Cl)cc2)C2=C(CCCC2C)N=3)cc(OC)c1OC (stereo not drawn) | > 100 | > 100 | > 100 | > 100 | > 100 | > 100 | > 100 | > 100 | > 100 | > 100 |  |  |  |  |  |  |  | 
Cn1c2ccccc2c(=O)c2cccc(C(=O)NC(CCC(N)=O)C(=O)O)c21 (stereo not drawn) | > 100 | > 100 | > 100 | 0.678 | > 100 |  | > 100 |  | > 100 |  | > 100 |  |  |  |  |  |  | 
CO/N=C(\C)CCC#Cc1ccccc1C(=O)OC | > 10 | > 10 | > 10 | > 10 | > 10 | > 10 | > 10 | > 10 |  | > 10 | > 10 |  |  |  |  |  |  | 
COC(=O)C(CCSC)NC(=O)Cc1ccc(C(=O)c2ccccc2)cc1 (stereo not drawn) | > 100 | > 100 | > 100 | > 100 | > 100 | > 100 | > 100 | > 100 | > 100 | > 100 |  |  |  |  |  |  |  | 
COc1ccccc1C(=O)c1c(NCc2ccccc2)c(=O)c1=O | > 100 | > 100 | 35.8 | > 100 | > 100 | > 100 | > 100 | > 100 | > 100 |  |  |  |  |  |  |  |  | 
COc1cc2c(cc1OCCCC(=O)Nc1ccc3ccc4cccc5ccc1c3c45)N=C[C@@H]1CCCN1C2=O | 0.064 | 0.238 | < 0.01 |  | < 0.01 | 0.936 |  |  | 1.12 |  | < 0.01 | < 0.0167 | 0.042 | < 0.01 | < 0.01 | < 0.01 | 0.0335 | < 0.0158
COI1NC(=O)c2ccccc21 | > 100 | > 100 | > 100 | > 100 | > 100 | > 100 | > 100 | > 100 | > 100 |  |  |  |  |  |  |  |  | 
